Experimental data published in the supplement of paper PMC11061612.

What was measured:
Test in all cases: combination Emax (second highest fraction inhibited in the dose matrix, 72 h); higher = more inhibition; extreme values may be limits of the assay
[1] = test system: A498 (Kidney Carcinoma)
In short: (§1)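 After 24 hours at 37°C and 5% CO2 in 1536-well plates, cells in DMEM/F12 or RPMI plus 10% FBS received two-drug dose matrices for 72 hours. Viability came from CellTiter-Glo 2.0 luminescence and was scaled as inhibition, anchored at 0 by vehicle wells and at 1 by blank wells. Combination Emax is taken as the second-highest inhibition in the matrix, and Bliss excess as the observed combination effect less EA + EB − EA·EB, with EA and EB the single-agent effects.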

[2] = test system: ARH-77 (Non-Cancerous)
In short: as §1

[3] = test system: BICR22 (Oral Cavity Carcinoma)
In short: as §1

[4] = test system: CAS-1 (Glioblastoma)
In short: as §1

[5] = test system: COLO-320-HSR (Colorectal Carcinoma)
In short: as §1

[6] = test system: COR-L311 (Small Cell Lung Carcinoma)
In short: as §1

[7] = test system: ECC10 (Gastric Carcinoma)
In short: as §1

[8] = test system: Hs-445 (Non-Cancerous)
In short: as §1

[9] = test system: IGR-37 (Melanoma)
In short: as §1

[10] = test system: LN-405 (Glioblastoma)
In short: as §1

[11] = test system: NCI-H1666 (Lung Adenocarcinoma)
In short: as §1

[12] = test system: NCI-H1693 (Lung Adenocarcinoma)
In short: as §1

[13] = test system: NCI-H2141 (Small Cell Lung Carcinoma)
In short: as §1

[14] = test system: NY (Osteosarcoma)
In short: as §1

[15] = test system: OS-RC-2 (Kidney Carcinoma)
In short: as §1

[16] = test system: PANC-10-05 (Pancreatic Carcinoma)
In short: as §1

[17] = test system: SISO (Cervical Carcinoma)
In short: as §1

[18] = test system: SK-MES-1 (Squamous Cell Lung Carcinoma)
In short: as §1

[19] = test system: SK-MG-1 (Low Grade Glioma)
In short: as §1

[20] = test system: U-2-OS (Osteosarcoma)
In short: as §1

Compound	combination Emax [1]	combination Emax [2]	combination Emax [3]	combination Emax [4]	combination Emax [5]	combination Emax [6]	combination Emax [7]	combination Emax [8]	combination Emax [9]	combination Emax [10]	combination Emax [11]	combination Emax [12]	combination Emax [13]	combination Emax [14]	combination Emax [15]	combination Emax [16]	combination Emax [17]	combination Emax [18]	combination Emax [19]	combination Emax [20]
C=CCn1c(=O)c2cnc(Nc3ccc(N4CCN(C)CC4)cc3)nc2n1-c1cccc(C(C)(C)O)n1 [AZD1775] + O=C(c1cc(Cc2n[nH]c(=O)c3ccccc23)ccc1F)N1CCN(C(=O)C2CC2)CC1 [Olaparib] (first compound max 1 µM, partner max 10 µM)	0.51	0.929	0.508	0.52	0.606	0.587	0.796	0.899	0.776	0.176	0.335	0.288	0.528	0.578	0.298	0.465	0.679	0.5	0.572	0.637
CN(CCO)CC[C@H](CSc1ccccc1)Nc1ccc(S(=O)(=O)NC(=O)c2ccc(N3CCC([C@@H](O)c4ccccc4-c4ccc(Cl)cc4)CC3)cc2)cc1S(=O)(=O)C(F)(F)F [AZD4320] + C1CN(CCC1(C(=O)N[C@@H](CCO)C2=CC=C(C=C2)Cl)N)C3=NC=NC4=C3C=CN4 [Capivasertib] (first compound max 1 µM, 7x7, partner max 3 µM)	0.57	0.841	0.684	0.327	0.0137	1	1	0.805	0.186	0.45	0.201		0.829	0.0978	0.337	0.265	0.0618	0.104	0.413	0.225
COc1nnc2ccc(N3CCC(c4ccc(OCCN5CCN(C)C(=O)[C@H]5C)cc4)CC3)nn12 [AZD5153] + CN(CC[C@H](CSC1=CC=CC=C1)NC2=C(C=C(C=C2)S(=O)(=O)NC(=O)C3=CC=C(C=C3)N4CCC(CC4)[C@H](C5=CC=CC=C5C6=CC=C(C=C6)Cl)O)S(=O)(=O)C(F)(F)F)CCO [AZD4320] (first compound max 1 µM, 7x7, partner max 1 µM)	0.66	0.965		0.587		1		0.889		0.723		0.628	0.941		0.292		0.419	0.631	0.566	0.319
Cc1c2c(nn1C)CSCc1cc(n(C)n1)CSc1cc(c3ccccc3c1)OCCCc1c(C(=O)O)n(C)c3c-2c(Cl)ccc13 [AZD5991] + Cn1cnc2c(F)c(Nc3ccc(Br)cc3Cl)c(C(=O)NOCCO)cc21 [Selumetinib] (first compound max 1 µM, 7x7, partner max 3 µM)	0.611		0.959	0.286	0.801	0.247	0.669	0.932	0.996	0.383	0.736	0.319	0.22	0.416	0.238	0.442	0.173	0.435	0.339	0.331
CC(=O)c1c(C)c2cnc(Nc3ccc(N4CCNCC4)cn3)nc2n(C2CCCC2)c1=O [Palbociclib] + CN(CC[C@H](CSC1=CC=CC=C1)NC2=C(C=C(C=C2)S(=O)(=O)NC(=O)C3=CC=C(C=C3)N4CCC(CC4)[C@H](C5=CC=CC=C5C6=CC=C(C=C6)Cl)O)S(=O)(=O)C(F)(F)F)CCO [AZD4320] (first compound max 10 µM, 7x7, partner max 1 µM)	0.658	0.899		0.405		1		0.95		0.69		0.803	0.883		0.365		0.126	0.289	0.563	0.355
CCc1c2c(nc3ccc(O)cc13)-c1cc3c(c(=O)n1C2)COC(=O)[C@]3(O)CC [SN-38] + O=C(c1cc(Cc2n[nH]c(=O)c3ccccc23)ccc1F)N1CCN(C(=O)C2CC2)CC1 [Olaparib] (first compound max 0.3 µM, 7x7, partner max 10 µM)	0.598	0.997	0.95	0.609	0.261		1	1	0.863	0.413	0.532		0.423	0.91		0.76	0.932		0.821	0.205
C[C@@H](c1ccc2nccn2c1)n1nnc2ncc(-c3cnn(C)c3)nc21 [Savolitinib] + CN(CC[C@H](CSC1=CC=CC=C1)NC2=C(C=C(C=C2)S(=O)(=O)NC(=O)C3=CC=C(C=C3)N4CCC(CC4)[C@H](C5=CC=CC=C5C6=CC=C(C=C6)Cl)O)S(=O)(=O)C(F)(F)F)CCO [AZD4320] (first compound max 1 µM, 7x7, partner max 1 µM)	0.308	0.82		0.176		1		0.625		0.455		0.182	0.744		0.324		0.0887	0.18	0.152	0.385
